Series [1] in a line: Cytotoxicity against human KKU-M156 cells assessed as growth inhibition after 72 hrs by sulforhodamine B assay. The following applies: KKU-M156, 72 h. (In general: Sulforhodamine B stains cellular protein and so reports cell mass.)
Series [2] can be described thus: Cytotoxicity against human KKU-M139 cells assessed as growth inhibition after 72 hrs by sulforhodamine B assay. To be noted: KKU-M139, 72 h.
Series [3] can be described thus: Cytotoxicity against human KKU-M213 cells assessed as growth inhibition after 72 hrs by sulforhodamine B assay. To be noted: KKU-M213, 72 h.
The subject of series [4] is Vero. Description: Cytotoxicity against african green monkey Vero cells assessed as growth inhibition after 72 hrs by sulforhodamine B assay. To be noted: Chlorocebus sabaeus.
Series [5] relates to KKU-M156. Description: Cytotoxicity against human KKU-M156 cells assessed as growth inhibition at > 200 uM after 72 hrs by sulforhodamine B assay.
The test system of series [6] is KKU-M139. Description: Cytotoxicity against human KKU-M139 cells assessed as growth inhibition at > 200 uM after 72 hrs by sulforhodamine B assay.
The subject of series [7] is Vero. Description: Cytotoxicity against african green monkey Vero cells assessed as growth inhibition at > 200 uM after 72 hrs by sulforhodamine B assay. The following applies: Chlorocebus sabaeus.
Series [8] has as its system KKU-M213. Description: Cytotoxicity against human KKU-M213 cells assessed as growth inhibition at > 200 uM after 72 hrs by sulforhodamine B assay.

Calls of active or inactive are those of the source. The rule behind the calls is not given here.

IC50, inhibition and Activity data for 14 molecules are collected here from ChEMBL document CHEMBL3352676, “Terpenoids from the root bark of Pterolobium macropterum” (J Nat Prod, 2014).

Regarding `CC(C)[C@@H]1CC[C@@H](C)[C@@H]2CCC(=O)C=C12`, the concentration for half-maximal inhibition (IC50) – broadly, the concentration that inhibits the measured activity by half – amounted to 88.8 µM in series [1], 70.8 µM in series [2], 87.3 µM in series [3] and 154 µM in series [4].

For the molecule `COC(=O)[C@]1(C)CCC[C@@]2(C)[C@H]1CC[C@H]1[C@@H](C)C3=CC(=O)OC3=C[C@@H]12`, the inhibition entry in series [5] and in series [6] was “inactive” throughout. Also, the figures for the IC50 in series [3] and in series [4] were 47.6 µM and 94.4 µM, respectively.

Turning to `C[C@H]1C2=CC(=O)O[C@]2(O)C[C@H]2[C@H]1CC[C@@H]1[C@]2(C)CCC[C@@]1(C)C(=O)O` [DIPTERYXIC ACID], the IC50 in series [1] turned out to be 82.9 µM; in series [2] it was 77.3 µM; in series [3], 68.9 µM; in series [4] it was 97.1 µM.

In the case of `COC(=O)[C@]1(C)CCC[C@]2(C)c3cc4occc4c(C)c3CC[C@@H]12`, the half-inhibitory concentration (IC50) in series [1] amounted to 80.1 µM; in series [2] it was 70.6 µM; in series [3], 144 µM; in series [4], 57.6 µM.

As for `CC1=C2CC3CC[C@@H](C)C2(CC1=O)C3(C)C` (stereo partly specified), the inhibition entry in series [5] and in series [6] was “inactive” each time. Also, the concentration for half-maximal inhibition (IC50) in series [3] was determined as 138 µM. Moreover, in series [7], the Activity entry is given as “Non-toxic”.

For `COC(=O)[C@]1(C)CCC[C@@]2(C)[C@H]1CC[C@H]1[C@@H](C)C3=CC(=O)O[C@]3(O)C[C@@H]12`, the IC50 in series [1] is 61.2 µM; in series [2], 76.3 µM; in series [3], 44 µM; in series [4], 59.2 µM.

For `COC(=O)[C@]1(C)CC[C@@H](OC(C)=O)[C@]2(C)c3cc4occc4c(C)c3C[C@@H](O)[C@H]21`, the IC50 was 115 µM in series [1], 155 µM in series [2] and 98.2 µM in series [3]. Also, in series [7], the Activity result is “Non-toxic”.

Consider `Cc1c2ccncc2c(C)c2c1[nH]c1ccccc12` [ELLIPTECINE], for which the half-inhibitory concentration (IC50) is 37.9 µM in series [1], 18.3 µM in series [2], 6.58 µM in series [3] and 15.5 µM in series [4].

Turning to `CC(C)[C@@H]1CC[C@@H](C)[C@@H]2CCC(C=O)=C[C@@]12O`, the inhibition result in series [5] and in series [6] was “inactive” each time. The IC50 in series [3] was found to be 88.8 µM. In series [7], the Activity entry is recorded as “Non-toxic”.

As to `CC(C)[C@]1(O)CC[C@@H](C)[C@@H]2CCC(=O)C=C21`, the results for the 50% inhibitory concentration (IC50) in series [1], in series [2] and in series [4] were 139 µM, 148 µM and 154 µM, respectively. In series [8], the inhibition entry was “inactive”.

For the molecule `COC(=O)C1(C(=O)OC)CCC[C@]2(C)c3cc4occc4c(C)c3CC[C@@H]12`, the half-maximal inhibitory concentration (IC50) was 83.6 µM in series [1], 80.2 µM in series [2], 44.2 µM in series [3] and 65.7 µM in series [4].

In the case of `COC(=O)[C@]1(C)CCC[C@@]2(C)[C@H]1CC[C@H]1C(=O)c3ccoc3C[C@@H]12`, the values for the 50% inhibitory concentration (IC50) in series [1], in series [2] and in series [3] were 148 µM, 23.2 µM and 34.8 µM, respectively. The Activity entry in series [7] is “Non-toxic”.

As for `COC(=O)[C@]1(C)CCC[C@@]2(C)[C@H]1CC[C@H]1C(C)=CC(=O)C[C@@H]12`, the inhibition entry in series [5] was “inactive”. The figures for the concentration for half-maximal inhibition (IC50) in series [2], in series [3] and in series [4] were 197 µM, 66.8 µM and 50.5 µM, respectively.

As for `COC(=O)[C@]1(C)CCC[C@]2(C)c3cc4occc4c(C)c3C[C@@H](O)[C@@H]12`, the IC50 in series [1] worked out at 113 µM; in series [2] it was 122 µM; in series [3] it was 105 µM. Moreover, the Activity result in series [7] is given as “Non-toxic”.
